What was measured:
HbA1c = assay: Twelve patients with DM took MP for three months; HbA1c measured; format: in vivo, human
Source text: Twelve patients with DM, including a juvenile diabetic, took two (2) grams of MP in water two (2) times per day for three (3) months without any other lifestyle change. The average decrease of HbA1c was one percent (1%). (The group average HbA1c diminished from 7.5% to 6.5% during the course of three (3) months of treatment.)

[1] = tested on: pancreatic rat islet cells; assay: MP instilled into pancreatic rat islet cells; insulin manufacture; format: cell-based; details: pancreatic rat islet cells (animal model), several studies
Source text: The methyl pyruvate molecule and certain of these molecular analogues are lipophilic antisense-like permeants, each of which holds onto its own membrane penetrability as well as acting collectively to produce a timed release delivery within the inner mitochondria. The combinational synergy can be different than each effect individually. […] This up regulation is key for enhanced utilization and regulation of glucose transport. MP closes potassium channels and opens calcium channels (via aquaporin generation) allowing a more favorable cellular milieu (increases cytosolic pH) that increases CAC productivity via our delivered MP (as pyruvate), as well as the now utilizable glucose. The use of MP and/or EP as energy molecules allows gene silenced and disabled near-apoptotic cells to proceed logically/genomically to a more idealized homeostatic state for the organism. The invention represents a method for genomic self-regulation of HbA1c.
MP instilled into pancreatic rat islet cells enable upregulation of insulin manufacture six-fold in several studies. The measured Jurkat current is countered and neutralized by MP's proton impedance enhancing its later provocation in increased insulin manufacture.

[2] = Safety test in human volunteers; format: in vivo; details: clinically prescribed doses
Source text: Methyl pyruvate performs as a lipophilic antisense-like bullet that penetrates cell membranes, mitochondrial membranes and nuclear membranes with its active and passive delivery of energy via protons, adenosine triphosphate manufacture (ATP) and methylation. This energy delivering metabolic bullet upregulates all cytosolic and nuclear capabilities. It can even negate messenger RNA (mRNA) expression. Now, because of instant protons and pyruvate delivered, there is immediately empowered glycolysis and/or CAC production of ATP and the cell functions with more efficient performance. Through this newly available energy, gene silencing can be reversed, repairs completed, apoptosis performed, and the cell is upgraded and/or divides (cell partitioning) into a new and improved cell having shed its prior oxidative cellular/genetic debris. In DM this means improved Glut4 networking, improved insulin sensitivity, increased intra and intercellular networking and increased superoxide dismutase (SOD) production. Further, due to MP, many nutrients and complicit molecules including peroxisome proliferator-activator receptor (Ppars) will now function more effectively and efficiently, i.e. as infused and increased cellular energy can now affect niacinamide (B3) and nicotinamide adenine dinucleotide (NAD) at an intracellular level that enables and protects beta cell function. […]

SMILES | average decrease of HbA1c (HbA1c; 2 grams of MP in water 2 times per day for 3 months, no other lifestyle change) | group average HbA1c after treatment (HbA1c; after 3 months of 2 grams of MP in water 2 times per day) | group average HbA1c before treatment (HbA1c; start of treatment (baseline)) | upregulation of insulin manufacture [1] | safety in human volunteers [2]
COC(=O)C(C)=O [MP, methyl pyruvate] | 1% | 6.5% | 7.5% | six-fold | safe
CCOC(=O)C(C)=O [EP, ethyl pyruvate] | – | – | – | – | safe

From patent US9265741B2, “Molecules to perfect HbA1c levels” (Neville Pharmaceutical, Inc., priority 2011, dated 2016)
